According to patent publication US20040116529A1, “Anticancer and chemopreventative agents and methods of use thereof” (priority 2001, published 2004):

How the values were obtained:
[1] = test system: prostate specific antigen (PSA); experiment: Intracellular PSA levels in LNCaP cells exposed to DBM (Western analysis); type: cell-based, human
Excerpt: (§1) LNCaP cells cultured in the presence of androgens secrete prostate specific antigen (PSA) into the culture medium.

[2] = test system: TRAMP (TRansgenic Adenocarcinoma of Mouse Prostate) mice; experiment: Prostate carcinogenesis in TRAMP mice fed 1% DBM diet; type: in vivo
Excerpt: In other words, development of premalignant prostatic intraepithelial (PIN) neoplasia and primary adenocarcinoma of the prostate of TRAMP mice is similar to the development of prostate cancer in humans. TRAMP mice are discussed in greater detail in U.S. Pat. No. 5,907,087, which is incorporated herein by reference.
(§2) Two groups of TRAMP mice were studied, where one is a control cohort and the other is the cohort fed DBM.

[3] = test system: human prostate cancer cells; experiment: Proliferation of human prostate cancer cells in vitro; type: cell-based
[4] = Serum DBM levels in TRAMP mice fed 1% DBM diet; type: in vivo, mouse
Excerpt: as §2

[5] = test system: prostate specific antigen (PSA); experiment: Extracellular PSA secreted by LNCaP cells exposed to DBM (ELISA analysis); type: cell-based, human; details: baseline about 700
Excerpt: as §1

O=C(CC(=O)c1ccccc1)c1ccccc1 [DBM, dibenzoylmethane]
DBM concentration at which intracellular PSA is not readily detectable by Western analysis [1]: ≥ 10 µM
PSA levels ([1]; DBM at 10, 25 and 50 micromolar): dose-dependent down regulation
cancer and high-grade prostatic intraepithelial neoplasia versus control cohort ([2]; 1% DBM diet, at 18 weeks): significantly less cancer and high-grade prostatic intraepithelial neoplasia
mice developing either adenocarcinoma or high grade PIN ([2]; diet of 1% DBM (weight/weight) in AIN-76A from six weeks of age, control cohort 6 of 10): 2 of 11
proliferation of human prostate cancer cells in vitro [3]: inhibit proliferation
serum levels of DBM ([4]; diet of 1% DBM from six weeks of age): 1000 nM
oral absorption from the gastrointestinal tract ([4]; oral DBM in diet): orally bioavailable
Extracellular PSA ([5]; 25 micromolar DBM): ~150 nanograms per milliliter
Extracellular PSA ([5]; 50 micromolar DBM): ~100 nanograms per milliliter
Extracellular PSA ([5]; at micromolar DBM (concentration not given)): approximately 200 nanograms per milliliter
